Legend:
[1] = target: T1, human alpha 1d adrenergic receptor (Homo sapiens, UniProt P25100); assay: Selective Binding assay, alpha 1d ([125I]-HEAT competition binding); conditions: Table 1, cloned human receptors; read-out: alpha adrenergic receptor subtype binding, 1d
T1 construct: host or cells: stably transfected human alpha 1d cell line (ATCC CRL 11138)
T1 sequence (P25100 1-572): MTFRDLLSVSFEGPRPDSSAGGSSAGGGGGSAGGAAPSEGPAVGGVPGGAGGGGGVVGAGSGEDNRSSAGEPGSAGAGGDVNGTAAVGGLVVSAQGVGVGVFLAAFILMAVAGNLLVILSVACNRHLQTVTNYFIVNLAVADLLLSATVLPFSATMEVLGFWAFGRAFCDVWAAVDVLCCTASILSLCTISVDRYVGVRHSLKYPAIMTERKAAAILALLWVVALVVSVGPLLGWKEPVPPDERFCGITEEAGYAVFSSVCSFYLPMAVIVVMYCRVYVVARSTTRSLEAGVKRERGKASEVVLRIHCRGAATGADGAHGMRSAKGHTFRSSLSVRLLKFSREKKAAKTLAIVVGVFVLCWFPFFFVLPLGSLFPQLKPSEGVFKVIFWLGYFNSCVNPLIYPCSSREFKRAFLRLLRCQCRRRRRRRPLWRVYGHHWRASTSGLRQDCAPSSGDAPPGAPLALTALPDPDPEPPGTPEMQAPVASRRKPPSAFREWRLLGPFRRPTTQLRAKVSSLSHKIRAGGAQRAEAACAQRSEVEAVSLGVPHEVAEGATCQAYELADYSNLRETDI
Procedure: (§1) These competition binding reactions (total volume=200 μl) contained 50 mM Tris-HCl pH 7.4, 5 mM EDTA, 150 mM NaCl, 100 pM [^125 I]-HEAT, membranes prepared from cell lines transfected with the respective alpha 1 subtype expression plasmid and increasing amounts of unlabeled ligand. Reactions were incubated at room temperature for one hour with shaking. Reactions were filtered onto Whatman GF/C glass fiber filters with a Inotec 96 well cell harvester. Filters were washed three times with ice cold buffer and bound radioactivity was determined (Ki).

[2] = target: T2, human alpha 1a adrenergic receptor (Homo sapiens, UniProt P35348); assay: Selective Binding assay, alpha 1a ([125I]-HEAT competition binding); conditions: Table 1, cloned human receptors; read-out: alpha adrenergic receptor subtype binding, 1a
T2 construct: host or cells: stably transfected human alpha 1a cell line (ATCC CRL 11140)
T2 sequence (P35348 1-466): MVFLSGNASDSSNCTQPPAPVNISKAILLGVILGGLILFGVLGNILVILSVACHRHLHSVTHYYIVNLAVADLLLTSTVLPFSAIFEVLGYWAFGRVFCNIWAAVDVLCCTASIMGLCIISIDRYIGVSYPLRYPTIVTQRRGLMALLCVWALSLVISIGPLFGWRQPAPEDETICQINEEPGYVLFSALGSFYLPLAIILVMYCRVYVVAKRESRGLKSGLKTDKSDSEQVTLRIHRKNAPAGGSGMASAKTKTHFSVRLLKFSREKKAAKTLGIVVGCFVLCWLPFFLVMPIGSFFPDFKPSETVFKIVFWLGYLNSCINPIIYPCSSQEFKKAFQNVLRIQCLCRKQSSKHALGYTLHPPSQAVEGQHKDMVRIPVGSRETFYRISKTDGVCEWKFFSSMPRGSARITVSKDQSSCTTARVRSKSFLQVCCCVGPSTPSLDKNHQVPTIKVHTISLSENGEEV
Procedure: as §1

[3] = target: T3, human alpha 1b adrenergic receptor (Homo sapiens, UniProt P35368); assay: Alpha 1b Adrenergic Receptor Binding ([125I]-HEAT competition binding); conditions: Table 1, cloned human receptors; read-out: alpha adrenergic receptor subtype binding, 1b
T3 construct: host or cells: stably transfected human alpha 1b cell line (ATCC CRL 11139)
T3 sequence (P35368 1-520): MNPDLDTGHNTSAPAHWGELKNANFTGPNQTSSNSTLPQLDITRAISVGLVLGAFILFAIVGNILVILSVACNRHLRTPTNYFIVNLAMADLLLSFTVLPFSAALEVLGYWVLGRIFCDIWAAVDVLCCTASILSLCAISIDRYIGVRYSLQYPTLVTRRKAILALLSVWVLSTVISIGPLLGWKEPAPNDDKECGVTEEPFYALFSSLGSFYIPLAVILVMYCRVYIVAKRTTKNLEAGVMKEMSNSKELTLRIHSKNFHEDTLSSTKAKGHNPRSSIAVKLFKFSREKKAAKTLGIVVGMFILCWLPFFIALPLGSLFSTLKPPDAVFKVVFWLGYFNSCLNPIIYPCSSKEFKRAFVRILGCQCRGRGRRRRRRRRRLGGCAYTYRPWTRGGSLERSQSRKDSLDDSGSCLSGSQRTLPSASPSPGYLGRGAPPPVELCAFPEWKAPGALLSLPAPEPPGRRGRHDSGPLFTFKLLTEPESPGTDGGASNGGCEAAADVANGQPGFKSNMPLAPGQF
Procedure: (§2) Receptor binding data for representative compounds of the present invention in cloned human receptors is shown below in Table 1.
Screening assay: Alpha 1b Adrenergic Receptor Binding
as §1, with “Membranes prepared from the stably transfected human alpha 1b cell line (ATCC CRL 11139) were used to identify compounds that bind to the human alpha 1b adrenergic receptor. These” for “These”, “from the alpha 1b” for “from”, “line” for “lines transfected with the respective alpha 1 subtype expression plasmid”

[4] = target: T4, human alpha 2a adrenergic receptor (Homo sapiens, UniProt P08913); assay: Receptor binding, cloned human alpha 2a; conditions: for Ki: Table 1, cloned human receptors, read-out: alpha adrenergic receptor subtype binding, 2a
T4 construct: expressed in transfected cells; host or cells: cloned human receptor
T4 sequence (P08913 1-465): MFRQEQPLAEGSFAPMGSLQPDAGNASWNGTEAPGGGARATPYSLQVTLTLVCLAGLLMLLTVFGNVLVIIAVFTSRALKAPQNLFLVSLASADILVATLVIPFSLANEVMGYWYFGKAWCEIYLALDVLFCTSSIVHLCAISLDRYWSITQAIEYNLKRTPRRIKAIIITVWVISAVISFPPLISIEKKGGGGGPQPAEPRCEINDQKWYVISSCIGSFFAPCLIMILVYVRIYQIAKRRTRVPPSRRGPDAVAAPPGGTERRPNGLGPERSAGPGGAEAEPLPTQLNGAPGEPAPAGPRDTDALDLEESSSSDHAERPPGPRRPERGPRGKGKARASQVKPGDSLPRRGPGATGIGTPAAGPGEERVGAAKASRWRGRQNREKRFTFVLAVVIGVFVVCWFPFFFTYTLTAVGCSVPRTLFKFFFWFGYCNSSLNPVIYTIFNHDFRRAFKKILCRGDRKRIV
Text: (§3) This is accomplished according to methods known in the art using other receptors responsible for mediating diverse biological functions. [See e.g., PCT International Application Publication No. WO94/10989, published 26 May 1994; U.S. Pat. No. 5,403,847, issued Apr. 4, 1995, the contents of which are hereby incorporated by reference]. Compounds which are both selective amongst the various human alpha 1 adrenergic receptor subtypes and which have low affinity for other receptors, such as the alpha 2 adrenergic receptors, the β-adrenergic receptors, the muscarinic receptors, the serotonin receptors, and others are particularly preferred. The absence of these non-specific activities may be confirmed by using cloned and expressed receptors in an analogous fashion to the method disclosed herein for identifying compounds which have high affinity for the various human alpha 1 adrenergic receptors. Furthermore, functional biological tests are used to confirm the effects of identified compounds as alpha 1b adrenergic receptor antagonists.
as §2

[5] = target: T5, human alpha 2b adrenergic receptor (Homo sapiens, UniProt P18089); assay: Receptor binding, cloned human alpha 2b; conditions: for Ki: Table 1, cloned human receptors, read-out: alpha adrenergic receptor subtype binding, 2b
T5 construct: expressed in transfected cells; host or cells: cloned human receptor
T5 sequence (P18089 1-450): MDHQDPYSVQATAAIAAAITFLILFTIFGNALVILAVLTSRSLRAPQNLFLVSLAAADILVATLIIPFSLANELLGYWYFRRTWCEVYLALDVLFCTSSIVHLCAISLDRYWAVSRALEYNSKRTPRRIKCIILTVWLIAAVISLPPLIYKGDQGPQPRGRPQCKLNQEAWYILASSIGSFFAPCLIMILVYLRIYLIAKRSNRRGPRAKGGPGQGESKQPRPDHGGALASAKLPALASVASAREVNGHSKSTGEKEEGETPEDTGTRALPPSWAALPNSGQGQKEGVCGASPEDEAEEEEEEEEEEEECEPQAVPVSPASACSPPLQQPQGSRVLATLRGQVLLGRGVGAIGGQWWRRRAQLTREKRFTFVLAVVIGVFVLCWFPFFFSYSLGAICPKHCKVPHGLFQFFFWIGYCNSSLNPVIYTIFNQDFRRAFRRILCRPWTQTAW
Text: as §3, §2

[6] = target: T6, human alpha 2c adrenergic receptor (Homo sapiens, UniProt P18825); assay: Receptor binding, cloned human alpha 2c; conditions: for Ki: Table 1, cloned human receptors, read-out: alpha adrenergic receptor subtype binding, 2c
T6 construct: expressed in transfected cells; host or cells: cloned human receptor
T6 sequence (P18825 1-462): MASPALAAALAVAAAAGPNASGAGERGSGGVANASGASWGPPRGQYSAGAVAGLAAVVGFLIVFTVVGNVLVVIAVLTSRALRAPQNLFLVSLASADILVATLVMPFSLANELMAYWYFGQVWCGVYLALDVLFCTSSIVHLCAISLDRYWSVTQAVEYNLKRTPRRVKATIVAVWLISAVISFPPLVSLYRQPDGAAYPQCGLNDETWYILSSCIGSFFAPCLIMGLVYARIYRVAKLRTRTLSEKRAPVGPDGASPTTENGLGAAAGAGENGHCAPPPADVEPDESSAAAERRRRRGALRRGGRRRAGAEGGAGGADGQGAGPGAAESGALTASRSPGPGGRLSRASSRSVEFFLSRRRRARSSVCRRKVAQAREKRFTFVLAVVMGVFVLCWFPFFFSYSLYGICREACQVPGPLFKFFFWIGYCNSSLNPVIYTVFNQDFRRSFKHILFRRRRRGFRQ
Text: as §3, §2

Row | Ki [1] [nM] | Ki [2] [nM] | Ki [3] [nM] | inhibition at 1 µM ([4]; read-out: alpha adrenergic receptor subtype binding, 2a, % @ 1 uM) [%] | inhibition at 10 µM ([4]; read-out: alpha adrenergic receptor subtype binding, 2a, % @ 10 uM) [%] | inhibition at 1 µM ([5]; read-out: alpha adrenergic receptor subtype binding, 2b, % @ 1 uM) [%] | inhibition at 10 µM ([5]; read-out: alpha adrenergic receptor subtype binding, 2b, % @ 10 uM) [%] | inhibition at 1 µM ([6]; read-out: alpha adrenergic receptor subtype binding, 2c, % @ 1 uM) [%] | inhibition at 10 µM ([6]; read-out: alpha adrenergic receptor subtype binding, 2c, % @ 10 uM) [%] | Ki [4] [nM] | Ki [5] [nM] | Ki [6] [nM] | SMILES
1 | 97 | > 3670 | 3.4 | 23 | 65 | 16 | 23 | 42 | 71 |  |  |  | COc1cc2nc(N3CCN(C(=O)c4ccco4)[C@H](C(=O)NC(C)(C)C)C3)nc(N)c2cc1OC [Compound 4a]
2 | 29 | 463 | 1 |  |  |  |  |  |  | 683 | > 10000 | 715 | COc1cc2nc(N3CCN(C(=O)OCc4ccccc4)[C@H](C(=O)NC(C)(C)C)C3)nc(N)c2cc1OC [Compound 2a, (S)-1-(4-Amino-6,7-dimethoxy-2-quinazolinyl)-4-[(benzyloxy)carbonyl]-3-(1,1-dimethylethylamino)carbonyl piperazine]
3 | 111 | 1190 | 2.7 |  |  |  |  |  |  | 1170 | > 10000 | 736 | COc1cc2nc(N3CCN[C@H](C(=O)NC(C)(C)C)C3)nc(N)c2cc1OC [Compound 3a, (S)-1-(4-Amino-6,7-dimethoxy-2-quinazolinyl)-3-(1,1-dimethylethylamino)carbonyl piperazine]

Source: US5747490A, “Alpha 1b adrenergic receptor antagonists” (Merck & Co., Inc., priority 1996, dated 1998)
